Where “and” joins values, the source holds several entries; their conditions need not be identical. Equal entries are not always repeated.
Legend:
[1] = target: T1, human ETA receptors (Homo sapiens, UniProt P25101); assay: Endothelin binding inhibition, Binding Test #1: competition with 125I-ET-1 for ETA receptors on TE 671 cell membranes
T1 construct: endogenous in cells; host or cells: TE 671 cells (ATCC HTB 139), membrane preparation
T1 sequence (P25101 21-427): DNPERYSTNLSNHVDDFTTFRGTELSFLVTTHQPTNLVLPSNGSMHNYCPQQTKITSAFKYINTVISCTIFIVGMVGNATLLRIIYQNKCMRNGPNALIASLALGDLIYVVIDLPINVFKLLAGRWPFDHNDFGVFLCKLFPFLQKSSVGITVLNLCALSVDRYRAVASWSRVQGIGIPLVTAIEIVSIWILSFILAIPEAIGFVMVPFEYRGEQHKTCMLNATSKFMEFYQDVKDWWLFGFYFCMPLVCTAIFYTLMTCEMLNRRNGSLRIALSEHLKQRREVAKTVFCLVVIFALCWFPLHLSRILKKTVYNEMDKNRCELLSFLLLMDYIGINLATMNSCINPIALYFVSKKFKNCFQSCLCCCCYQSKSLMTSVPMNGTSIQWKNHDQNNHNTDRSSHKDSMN

[2] = target: T2, human ETB receptor (Homo sapiens, UniProt P24530); assay: Endothelin binding inhibition, Binding Test #2: competition with 125I-ET-1 for ETB receptors on transfected COS7 cell membranes
T2 construct: expressed in transfected cells; host or cells: COS7 cells
T2 sequence (P24530 27-442): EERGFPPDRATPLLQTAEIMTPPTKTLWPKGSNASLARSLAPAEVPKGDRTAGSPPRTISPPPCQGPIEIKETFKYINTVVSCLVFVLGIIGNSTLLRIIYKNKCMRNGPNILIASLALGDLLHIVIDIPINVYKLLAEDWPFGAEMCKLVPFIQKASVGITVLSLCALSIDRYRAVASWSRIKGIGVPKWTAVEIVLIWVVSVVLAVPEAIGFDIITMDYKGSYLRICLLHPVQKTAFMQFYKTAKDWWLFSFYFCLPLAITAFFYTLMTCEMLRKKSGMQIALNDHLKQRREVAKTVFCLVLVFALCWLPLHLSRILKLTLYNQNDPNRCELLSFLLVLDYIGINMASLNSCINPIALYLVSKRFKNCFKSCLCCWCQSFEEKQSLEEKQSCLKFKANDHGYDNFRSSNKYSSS
Excerpt: Compounds that are potential endothelin antagonists are identified by testing their ability to compete with ^125I-labeled ET-1 for binding to human ETA receptors or ETB receptors present on isolated cell membranes. The effectiveness of the test compound as an antagonist or agonist of the biological tissue response of endothelin can also be assessed by measuring the effect on endothelin induced contraction of isolated rat thoracic aortic rings. The ability of the compounds to act as antagonists or agonists for ETB receptors can be assess by testing the ability of the compounds are to inhibit endothelin-1 induced prostacyclin release from cultured bovine aortic endothelial cells.
COS7 cells were transfected with DNA encoding the ETB receptor, The resulting cells, which express the human ETB receptor, were grown to confluence in T-150 flasks. Membrane was prepared as described above. The binding assay was performed as described above using the membrane preparation diluted with binding buffer to a concentration of 1 μg/50 μL.
Briefly, the COS7 cells, described above, that had been transfected with DNA encoding the ETB receptor and express the human ETB receptor on their surfaces were grown to confluence in T-175 flasks. Cells from multiple flasks were collected by scraping, pooled and centrifuged for 10 min at 190×g. The cells were resuspended in phosphate buffered saline (PBS) containing 10 mM EDTA using a Tenbroeck homogenizer. The suspension was centrifuged at 4° C. 57,800×g for 15 min, the pellet was resuspended in 5 mL of buffer A (5 mM HEPES buffer, pH 7.4 containing aprotinin (100 KIU/mL)) and then frozen and thawed once. Five mL of Buffer B (5 mM HEPES Buffer, pH 7.4 containing 10 mM MnCl2 and 0.001% deoxyribonuclease Type 1) was added, the suspension mixed by inversion and then incubated at 37° C. for 30 minutes. The mixture was centrifuged at 57,800×g as described above, the pellet washed twice with buffer A and then resuspended in buffer C (30 mM HEPES buffer, pH 7.4 containing aprotinin (100 KIU/mL) to give a final protein concentration of 2 mg/mL.
The binding assay was performed as described above using the membrane preparation diluted to give 1 μg/50 μL of binding buffer.

[3] = incubation at 24° C. (values marked †)
[4] = incubation at 4° C. (values without †)

Structure (SMILES)	IC50 [1, 3]	IC50 [2, 3]	IC50 [1, 4]	IC50 [2, 4]	inhibition at 100 µM ([2]; read-out: ETB % inhibition @ 100 μM, @ 100 μM, incubation at 24° C.)
Cc1noc(NS(=O)(=O)c2ccsc2NC(=O)Nc2ccc3c(c2)OCO3)c1Br [N-(4-bromo-3-methyl-5-isoxazolyl)-2-[(3,4-methylenedioxy)phenylureido]thiophene-3-sulfonamide]	0.57 µM	1.3 µM	–	–	–
Cc1noc(NS(=O)(=O)c2ccsc2C(=O)Nc2ccc3c(c2)OCO3)c1Br [N-(4-bromo-3-methyl-5-isoxazolyl)-2-[(3,4-methylenedioxyphenyl)aminocarbonyl]thiophene-3-sulfonamide]	0.017 µM	9.8 µM	–	–	–
Cc1noc(NS(=O)(=O)c2ccsc2C(=O)Nc2cccc(C(=O)O)c2)c1Br [N-(4-bromo-3-methyl-5-isoxazolyl)-2-[(3-carboxyphenyl)aminocarbonyl]thiophene-3-sulfonamide]	0.062 µM	> 100 µM	–	–	–
Cc1noc(NS(=O)(=O)c2ccsc2C(=O)Nc2ccc(O)nn2)c1Br [N-(4-bromo-3-methyl-5-isoxazolyl)-2-[(3-hydroxyl-6-pyridazinyl)aminocarbonyl]thiophene-3-sulfonamide]	0.066 µM	81.3 µM	–	–	–
COc1cccc(OC(=O)c2sccc2S(=O)(=O)Nc2onc(C)c2Br)c1 [N-(4-bromo-3-methyl-5-isoxazolyl)-2-[(3-methoxylphenoxy)carbonyl]thiophene-3-sulfonamide]	0.79 µM	90 µM	–	–	–
COc1cccc(CC(=O)c2sccc2S(=O)(=O)Nc2onc(C)c2Br)c1 [N-(4-bromo-3-methyl-5-isoxazolyl)-2-[(3-methoxyphenyl)acetyl]thiophene-3-sulfonamide]	0.03 µM	19.1 µM	–	–	–
Cc1cccc(OC(=O)c2sccc2S(=O)(=O)Nc2onc(C)c2Br)c1 [N-(4-bromo-3-methyl-5-isoxazolyl)-2-[(3-methylphenoxy)carbonyl]thiophene-3-sulfonamide]	1.2 µM	111 µM	–	–	–
COc1ccc(OC(=O)c2sccc2S(=O)(=O)Nc2onc(C)c2Br)cc1 [N-(4-bromo-3-methyl-5-isoxazolyl)-2-[(4-methoxylphenoxy)carbonyl]thiophene-3-sulfonamide]	1.73 µM	111 µM	–	–	–
Cc1ccc(CCc2sccc2S(=O)(=O)Nc2onc(C)c2Br)cc1 [N-(4-bromo-3-methyl-5-isoxazolyl)-2-[(4-methyl)phenethyl]thiophene-3-sulfonamide]	0.106 µM	40.1 µM	–	–	–
Cc1ccc(OCc2sccc2S(=O)(=O)Nc2onc(C)c2Br)cc1 [N-(4-bromo-3-methyl-5-isoxazolyl)-2-[(4-methylphenoxy)methyl]thiophene-3-sulfonamide]	1.2 µM	15 µM	–	–	–
Cc1ccc(CC(=O)c2sccc2S(=O)(=O)Nc2onc(C)c2Br)cc1 [N-(4-bromo-3-methyl-5-isoxazolyl)-2-[(4-methylphenyl)acetyl]thiophene-3-sulfonamide]	0.198 µM	9.13 µM	–	–	–
Cc1noc(NS(=O)(=O)c2ccsc2C(=O)NS(=O)(=O)c2cccc3c(N(C)C)cccc23)c1Br [N-(4-bromo-3-methyl-5-isoxazolyl)-2-[(5-dimethylamino-1-naphthyl)sulfonylaminocarbonyl]thiophene-3-sulfonamide]	0.97 µM	3.9 µM	–	–	–
Cc1noc(NS(=O)(=O)c2ccsc2C(=O)N(C)c2ccccc2)c1Br [N-(4-bromo-3-methyl-5-isoxazolyl)-2-[(methyl)phenylaminocarbonyl]thiophene-3-sulfonamide]	–	–	0.188 µM	16 µM	–
Cc1noc(NS(=O)(=O)c2ccsc2C/C=C/c2ccc3c(c2)OCO3)c1Br [N-(4-bromo-3-methyl-5-isoxazolyl)-2-[trans-(3,4-methylenedioxy)cinnamyl]thiophene-3-sulfonamide]	0.14 µM	1.4 µM	–	–	–
CCCc1cc2c(cc1OC(=O)c1sccc1S(=O)(=O)Nc1onc(C)c1Br)OCO2 [N-(4-bromo-3-methyl-5-isoxazolyl)-2-{[2-propyl-4,5-(methylenedioxy)phenoxy]carbonyl}thiophene-3-sulfonamide]	0.138 µM	11.9 µM	–	–	–
CCCc1cc2c(cc1OCc1sccc1S(=O)(=O)Nc1onc(C)c1Br)OCO2 [N-(4-bromo-3-methyl-5-isoxazolyl)-2-{[4,5-(methylenedioxy)-2-propylphenoxy]methyl}thiophene-3-sulfonamide]	0.107 µM	0.407 µM	–	–	–
Cc1cc(C)c(C=CCc2ccsc2S(=O)(=O)Nc2onc(C)c2Br)c(C)c1 [N-(4-bromo-3-methyl-5-isoxazolyl)-3-(2,4,6-trimethylcinnamyl)thiophene-2-sulfonamide]	0.049 µM	1.86 µM	–	–	–
Cc1cc(C)c(CCc2ccsc2S(=O)(=O)Nc2onc(C)c2Br)c(C)c1 [N-(4-bromo-3-methyl-5-isoxazolyl)-3-(2,4,6-trimethylphenethyl)thiophene-2-sulfonamide]	0.055 µM	1.62 µM	–	–	–
Cc1ccc(C=CCc2ccsc2S(=O)(=O)Nc2onc(C)c2Br)c(C)c1 [N-(4-bromo-3-methyl-5-isoxazolyl)-3-(2,4-dimethylcinnamyl)thiophene-2-sulfonamide]	0.18 µM	2.97 µM	–	–	–
Cc1ccc(CCc2ccsc2S(=O)(=O)Nc2onc(C)c2Br)c(C)c1 [N-(4-bromo-3-methyl-5-isoxazolyl)-3-(2,4-dimethylphenethyl)thiophene-2-sulfonamide]	0.101 µM	4.3 µM	–	–	–
Cc1ccc(-c2ccsc2S(=O)(=O)Nc2onc(C)c2Br)c(C)c1 [N-(4-bromo-3-methyl-5-isoxazolyl)-3-(2,4-dimethylphenyl)thiophene-2-sulfonamide]	0.1 µM	60.3 µM	–	–	–
COc1ccccc1-c1ccsc1S(=O)(=O)Nc1onc(C)c1Br [N-(4-bromo-3-methyl-5-isoxazolyl)-3-(2-methoxyphenyl)thiophene-2-sulfonamide]	1.71 µM	59.1 µM	–	–	–
CCCc1ccc(-c2ccsc2S(=O)(=O)Nc2onc(C)c2Br)c(C)c1 [N-(4-bromo-3-methyl-5-isoxazolyl)-3-(2-methyl-4-propylphenyl)thiophene-2-sulfonamide]	0.0468 µM	3.63 µM	–	–	–
Cc1ccccc1-c1ccsc1S(=O)(=O)Nc1onc(C)c1Br [N-(4-bromo-3-methyl-5-isoxazolyl)-3-(2-tolyl)thiophene-2-sulfonamide]	0.324 µM and 0.302 µM	55.1 µM	–	–	31%
Cc1cccc(-c2ccsc2S(=O)(=O)Nc2onc(C)c2Br)c1 [N-(4-bromo-3-methyl-5-isoxazolyl)-3-(3-tolyl)thiophene-2-sulfonamide]	0.832 µM	21.2 µM	–	–	–
CCCCc1ccc(-c2ccsc2S(=O)(=O)Nc2onc(C)c2Br)cc1 [N-(4-bromo-3-methyl-5-isoxazolyl)-3-(4-butylphenyl)thiophene-2-sulfonamide]	–	6.11 µM	0.16 µM	–	–
CCc1ccc(-c2ccsc2S(=O)(=O)Nc2onc(C)c2Br)cc1 [N-(4-bromo-3-methyl-5-isoxazolyl)-3-(4-ethylphenyl)thiophene-2-sulfonamide]	–	43.9 µM	0.184 µM	–	–
Cc1cc(CC(C)C)ccc1-c1ccsc1S(=O)(=O)Nc1onc(C)c1Br [N-(4-bromo-3-methyl-5-isoxazolyl)-3-(4-iso-butyl-2-methylphenyl)thiophene-2-sulfonamide]	0.0468 µM	1.66 µM	–	–	–
